Results on one molecule are retold here after publication PMC8512560, “Design, Synthesis, and Antipoliferative Activities of Novel Substituted Imidazole-Thione Linked Benzotriazole Derivatives” (Molecules, 2021).

Test [1] relates to bovine brain tubulin. Nature of the test: Tubulin polymerization assay (turbidimetric, kit BK006). In kind it is biochemical. The note with it: read-out: Anti-Tubulin Activity IC50 ± SD (inhibition of tubulin polymerization). The method, then: The assembly of purified bovine tubulin was monitored using a kit, BK006, purchased from Cytoskeleton Inc., (Denver, CO, USA). The assay was carried out in accordance with the manufacturer’s instructions using the standard assay conditions. Briefly, purified ([…]) in a buffer consisting of 80 mM PIPES (pH 6.9), 0.5 mM EGTA, 2 mM MgCl2, 1 mM GTP and 10% glycerol was incubated at 37 °C in the presence of either vehicle (2% (v/v) ddH2O), CA-4, benzotriazole compounds. Light was scattered proportionally to the concentration of polymerized microtubules in the assay. Therefore, the tubulin assembly was monitored turbidimetrically at 340 nm in a Spectramax 340 PC spectrophotometer (Molecular Devices, Sunnyvale, CA, USA). The concentration that inhibits tubulin polymerization by 50% (IC50) was determined using area under the curve (AUC). The AUC of the untreated controls were considered as 100% polymerization. The IC50 value for each compound was computed using GraphPad Prism Software.

Test [2] relates to HCT-116 human colon cancer cell line. Nature of the test: MTT viability assay, HCT-116. The note with it: Homo sapiens, HCT-116, 72 h, mean ± SD of three independent experiments, read-out: Antiproliferative Activities IC50, HCT-116. In kind it is cell-based. How it is done: (§1) All the human tumour cell lines MCF-7, HL-60, HCT-116, and HUVEC were cultured in Dulbecco’s Modified Eagle’s Medium (DMEM) with 10% fetal bovine serum, 2 mM L-glutamine and 100 µg/mL penicillin/streptomycin. Cells were maintained at 37 °C in 5% CO2 in a humidified incubator. All cells were sub-cultured three times/week by trypsinization using TrypLE Express (1X).
(§2) The Benzotriazole compounds were evaluated for antiproliferative effect using the MTT viability assay of various cancer cell lines (MCF-7, HCT-116 and HL-60) and the normal human umbilical vein endothelial cell line (HUVEC) to calculate the relative IC50 values for each compound. Cells were seeded in triplicate in 96-well plates at a density of 10 × 10^3 cells/mL in a total volume of 200 µL per well. 0.1% of DMSO was used as a vehicle control. After this time, they were treated with 2 µL test compound which had been pre-prepared as stock solutions in ethanol to furnish the concentration range of study, 10 nM to 100 µM, and re-incubated for a further 72 h. The culture medium was then removed, and the cells washed with 100 µL phosphate buffered saline (PBS) and 50 µL MTT added, to reach a final concentration of 1 mg/mL MTT added. Cells were incubated for 2 h in darkness at 37 °C. At this point solubilisation was begun through the addition of […] DMSO and the cells maintained at room temperature in darkness for 20 min to ensure thorough colour diffusion before reading the absorbance. Plates were incubated for 72 h at 37 °C + 5% CO2. The MTT (5 mg/mL in PBS) was added and incubated for another 4 h, and the optical density was detected with a microplate reader at 570 nm. Results were expressed as percentage viability relative to vehicle control (100%). Dose response curves were plotted and IC50 values (concentration of drug resulting in 50% reduction in cell survival) were obtained using the commercial software package Prism (GraphPad Software, Inc., La Jolla, CA, USA). All the experiments were repeated in at least three independent experiments.

Test [3] deals with HUVEC human umbilical vein endothelial cell line. In words: MTT viability assay, normal HUVEC cells. In kind it is cell-based. The note with it: 72 h, mean ± SD of three independent experiments. The method, then:
as §1, §2
In general terms: Tetrazolium dyes change colour on reduction, which living cells bring about.

Test [4] has as its system HL-60 human leukemia cancer cell line. Nature of the test: MTT viability assay, HL-60. Format: cell-based. The note with it: Homo sapiens, HL-60, 72 h, mean ± SD of three independent experiments, read-out: Antiproliferative Activities IC50, HL-60. The method, then:
as §1, §2

Test [5] deals with MCF-7 human breast cancer cell line. In words: MTT viability assay, MCF-7. In kind it is cell-based. The note with it: Homo sapiens, MCF7, 72 h, mean ± SD of three independent experiments, read-out: Antiproliferative Activities IC50, MCF-7. The method, then: as §1, §2
The subject of test [6] is HL-60 cells. Nature of the test: Cell cycle analysis by PI flow cytometry. In kind it is cell-based, human. The note with it: 50 nM. The method, then:
HL-60 cells were seeded at a density of 1 × 10^5 cells/well in 6-well plates and treated with CA-4 and compound BI9 (1 µM) for 48 and 72 h. The cells were collected by trypsinization and centrifuged at 800× g for 15 min. Cells were washed twice with ice-cold PBS and fixed in ice-cold 70% ethanol overnight at −20 °C. Fixed cells were centrifuged at 800× g for 15 min and stained with 50 μg/mL of PI, containing 50 μg/mL of DNase-free RNase A, at 37 °C for 30 min. The DNA content of cells (10,000 cells/experimental group) was analysed by flow cytometer at 488 nm using a FACSCalibur flow cytometer (BD Biosciences, San Jose, CA, USA) and all data were recorded and analysed using the CellQuest Software (Becton-Dickinson).
In general terms: A flow cytometer gives signals particle by particle.

Test [7] concerns colchicine binding site of tubulin. In words: Colchicine site competitive binding assay ([3H]colchicine). The following applies: tubulin and colchicine at 1 and 5 µM. The method, then:
The affinity of Benzotriazole compounds to colchicine binding site was determined using a Colchicine Site Competitive Assay kit CytoDYNAMIX Screen15 (Cytoskeleton, Inc., Denver, CO, USA) using the standard protocol of the manufacturer to determine Ki values (μM). Biotin-labelled tubulin ([…]) and the test compounds (positive control colchicine, negative control vinblastine, G-1, fluorescent G-1, or 2-ME) in a 96-well plate (final volume: 100 μL). After incubating for 2 h at 37 °C with gentle shaking, streptavidin-labelled yttrium SPA beads (80 μg in 20 μL reaction buffer, PerkinElmer, Waltham, MA) were added to each well and incubated for 30 min at 4 °C. The plates were then read on a scintillation counter (Packard Instrument, Topcount Microplate Reader) and the percentage of inhibition was calculated.

In test [8] the test system is HL-60 cells. Nature of the test: Annexin V/PI apoptotic assay by flow cytometry. In kind it is cell-based, human. The following applies: BI9 1 µM, CA-4 concentration not given, control 1.6%. The method, then:
Apoptotic cell death was detected by flow cytometry using Annexin V and propidium iodide (PI). HL-60 Cells were seeded in 6 well plated at density of 1 × 10^5 cells/mL and treated with vehicle (0.1% (v/v) EtOH), positive control (CA-4) or compound BI9 (1 µM) for 48 and 72 h. Cells were then harvested and prepared for flow cytometric analysis. Cells were washed in 1X binding buffer ([…] binding buffer: 0.1M HEPES, pH 7.4; 1.4 M NaCl; 25 mM CaCl2 diluted in dH2O) and incubated in the dark for 30 min on ice in Annexin V-containing binding buffer [1:100]. Cells were then washed once in binding buffer and then re-suspended in PI-containing binding buffer [1:1000]. Samples were analysed immediately using the BD accuri flow cytometer and prism software for analysis the data. Four populations are produced during the assay Annexin V and PI negative (Q4, healthy cells), Annexin V positive and PI negative (Q3, early apoptosis), Annexin V and PI positive (Q2, late apoptosis) and Annexin V negative and PI positive (Q1, necrosis).

Several values for one entry are separate records, joined by “and”; a condition that tells them apart may be missing. Identical values can stand only once.

Usually IC50 stands for the point on the concentration scale where inhibition reaches its midpoint.

Take `COc1ccc(/C=C\c2cc(OC)c(OC)c(OC)c2)cc1O` [CA-4, Combretastatin A-4, reference compound]: the IC50 was […] in test [1]; 240 ± 20 nM in test [2]; 13600 ± 650 nM in test [3]; 770 ± 50 nM in test [4]; […] in test [5]. The figures for the “Proportion of HL-60 cells in G2/M phase” value in test [6] (48 h) and in test [6] (72 h) were 40.1% and 46.6%, respectively. Moreover, in test [7] (1 µM drug), the “Colchicine Binding % ± SD (inhibition of [3H]colchicine binding), 1 µM Drug” value was 64% and 64.23 ± 0.9%. Also, the “Colchicine Binding % ± SD (inhibition of [3H]colchicine binding), 5 µM Drug” value in test [7] (5 µM drug) is 85% and 85.63 ± 2%. The “Total fraction of early and late apoptotic cells (Annexin V positive)” value in test [8] (48 h) turned out to be 18.7%. Besides, in test [8] (72 h), the “Average fraction of Annexin V-staining positive cells (total apoptotic cells)” value is 23.7%.
